What was measured:
CD4+ lymphocytes = conditions: daily x5 schedule, low malignant lymphomas; cited from earlier work
heart allografts = assay: Rat heart-transplantation model (heterotopic heart allograft); format: in vivo; design: Leucopenia: dose or concentration left out as unconfirmed; conditions: for Graft rejection: histology graded by ISHT criteria
Protocol: Inbred male LEWIS (LEW) rats and Brown Norway (BN) rats weighing 200-270 g were obtained from “Zentralinstitut fur Versuchstierzucht”, Hannover, Germany. Heterotopic heart transplants were performed using microsurgical techniques as described by Schmid et al., Eur. Surg. […] Postoperatively, all animals were given water and standard rat diet ad libitum.
dFdC was administered subcutaneously once daily for 50 consecutive days beginning immediately after surgery. […] The control group (n=8) received no treatment.
The beating activity of heart allografts was determined by daily palpation. Animals were sacrificed by an overdose of ether whenever cardiac allografts stopped beating and hearts and all vital organs were excised for histology. Multiple sections of the left ventricle of the transplant and of every native organ were fixed in 4% buffered formalin. Paraffin-embedded probes were cut into 5-jim-thick sections and stained with hematoxylin and eosin. Slides were assessed by a pathologist blinded to the study and rejection was graded according to the ISHT criteria.

[1] = system: PHA-activated T-lymphocytes (peripheral blood mononuclear cells); assay: T-lymphocyte colony formation (lymphocyte colony-growth assay, microagar culture); format: cell-based; conditions: 168 h, PBMC, colonies scored after 7 days, read-out: 50% inhibition of PHA-induced lymphocyte proliferation (colony formation)
Protocol: dFdC is commercially available. […] Aye, Blood 58, 1043 (1981). Therefore, peripheral blood mononuclear cells (PBMC) were cultured with phytohemagglutinin (PHA) and varying concentrations of dFdC in the microagar culture system described by Petzer et al., Blood 78, 2583 (1991). PBMCs were suspended in Iscove s medium containing 20% fetal calf serum and 0.3% agar. Subsequently 250 μl aliquots of this suspension containing 2×10^5 PBMCs were plated in multiwell tissue culture plates. The agar was allowed to solidify at room temperature and then was overlayered with 250 μl medium containing 0.5% PHA and 0.5% 2-mercaptoethanol (1×10^−4 mol/l final concentrations). The cultures were incubated at 37° C. in a fully humidified atmosphere containing 5% CO2 and colonies were scored using an inverted microscope after 7 days of incubation.

[2] = i.v. over 30 minutes once per week for 3 weeks followed by a week's rest; cited from earlier work
[3] = system: CD4+ and CD8+ lymphocyte subsets; conditions: after repeated applications; cited from earlier work
[4] = daily x5 schedule, 9 mg/m^2 dose level; cited from earlier work

**Q.** For `Nc1nc(Cl)nc2c1ncn2[C@H]1C[C@H](O)[C@@H](CO)O1` [2-chlorodeoxyadenosine], which “Duration of severe suppression of CD4+ lymphocytes” value (CD4+ lymphocytes) is on record?
**A.** more than 12 months

**Q.** For `Nc1ccn([C@@H]2O[C@H](CO)[C@@H](O)C2(F)F)c(=O)n1` [dFdC, 2′-deoxy-2′,2′-difluorocytidine], which Allograft survival (heart allografts; 25 μg/kg/day s.c. once daily for 50 days) is on record?
**A.** 7.3 days

**Q.** And the Graft rejection (heart allografts; 25 μg/kg/day)?
**A.** Grade IV

**Q.** And the Allograft survival (heart allografts; 50 μg/kg/day s.c. once daily for 50 days)?
**A.** 9.2 days

**Q.** What about the Graft rejection (heart allografts; 50 μg/kg/day) of the same molecule?
**A.** Grade IV

**Q.** What about the Allograft survival (heart allografts; 75 μg/kg/day s.c. once daily for 50 days) of the same molecule?
**A.** 15.7 days

**Q.** And the Graft rejection (heart allografts; 75 μg/kg/day)?
**A.** Grade IV

**Q.** And the Allograft survival (heart allografts; 100 μg/kg/day s.c. once daily for 50 days)?
**A.** 152.8 days

**Q.** And the Graft rejection (heart allografts; 100 μg/kg/day)?
**A.** Grade IV

**Q.** And the Allograft survival (heart allografts; 125 μg/kg/day s.c. once daily for 50 days)?
**A.** 144.2 days

**Q.** What about the Graft rejection (heart allografts; 125 μg/kg/day) of the same molecule?
**A.** Grade IV

**Q.** What about the Allograft survival (heart allografts; 150 μg/kg/day s.c. once daily for 50 days) of the same molecule?
**A.** 41.5 days

**Q.** What about the Graft rejection (heart allografts; 150 μg/kg/day) of the same molecule?
**A.** None

**Q.** What about the Allograft survival (heart allografts; 300 μg/kg/day s.c. once daily for 50 days) of the same molecule?
**A.** 16.0 days

**Q.** And the Graft rejection (heart allografts; 300 μg/kg/day)?
**A.** None

**Q.** And the Allograft survival (heart allografts; 600 μg/kg/day s.c. once daily for 50 days)?
**A.** 10.5 days

**Q.** What about the Graft rejection (heart allografts; 600 μg/kg/day) of the same molecule?
**A.** None

**Q.** And the Allograft survival (heart allografts; 6000 μg/kg/day s.c. once daily for 50 days)?
**A.** 4.0 days

**Q.** And the Graft rejection (heart allografts; 6000 μg/kg/day)?
**A.** None

**Q.** And the “Graft survival compared to untreated controls” value (heart allografts; all animals given between 75 and 600 μg/kg BW)?
**A.** prolonged

**Q.** What about the Leucopenia (heart allografts; all animals of all dose groups) of the same molecule?
**A.** Dose-dependent leucopenia occurred in all animals of all groups

**Q.** What about the Reversibility of leucopenia (heart allografts; animals given less than 150 μg/kg) of the same molecule?
**A.** reversible

**Q.** And the “Toxicity at high dose” value (heart allografts; more than 125 μg/kg BW)?
**A.** overimmunosuppression and irreversible myelotoxicity

**Q.** What about the IC50 [1] of the same molecule?
**A.** 3.25 ± 0.9 nM

**Q.** And the “Myelosuppression with severe infections (WHO grade III/IV), share of patients” value [2]?
**A.** less than 1%

**Q.** What about the “Reduction of CD4+ and CD8+ lymphocyte subsets” value [3] of the same molecule?
**A.** no significant reduction

**Q.** What about the Nonhaematologic toxicity [4] of the same molecule?
**A.** significant amount of nonhaematologic toxicity including sporadic fever and severe hypertension

Source: patent US6555518B1, “Gemcitabine as an immunosuppressive pharmaceutical agent” (Eli Lilly and Company, priority 1998, dated 2003)
